Reference: PMC12881681 (Molecular Pharmacology, 2025)
“And” between values parts separate entries of the source, which are not always exact repeats. Equal values may be shown once. Read-outs that look alike come from different tables or passages of the source.

Columns and labels:
[1] = Rapid equilibrium dialysis, nonspecific binding to human liver cytosol
Method: Nonspecific binding of test chemicals to human liver cytosol (100 μg) was determined using a Rapid Equilibrium Dialysis Kit (Thermo Fisher Scientific), as described in detail in our previous publication.[27]
MOLPHA- D-25- 00208 Supplemental Materials. Kweh et al. Mol Pharmacol […]
inhibition constants (Ki,u ) for the inhibition of human liver cytosolic carbazeran 4-oxidation A mixture containing a test chemical (10 µM; dissolved in a final concentration of 0.5% v/v DMSO) and human liver cytosol (100 µg total cytosolic protein) were dialyzed as described under Materials and Methods. Chemical concentr ation in each chamber wa s quantified by UPLC-MS/MS. Data are exp ressed as mean ± S.D. of three independent experiments. […]
a, K I,u = f u × K I, where fu was calcul ated from 10 µ M of chemicals in human liver cytosol.

[2] = molecular target: T1, human liver cytosolic AOX1 (Homo sapiens, UniProt Q06278); assay: Enzyme inactivation of human liver cytosolic AOX1-mediated carbazeran 4-oxidation; conditions: for kinact: human liver cytosol 100 μg, carbazeran 15 μM, 37 °C; for Experimental Log KI: log of KI
T1 sequence (Q06278 1-1338): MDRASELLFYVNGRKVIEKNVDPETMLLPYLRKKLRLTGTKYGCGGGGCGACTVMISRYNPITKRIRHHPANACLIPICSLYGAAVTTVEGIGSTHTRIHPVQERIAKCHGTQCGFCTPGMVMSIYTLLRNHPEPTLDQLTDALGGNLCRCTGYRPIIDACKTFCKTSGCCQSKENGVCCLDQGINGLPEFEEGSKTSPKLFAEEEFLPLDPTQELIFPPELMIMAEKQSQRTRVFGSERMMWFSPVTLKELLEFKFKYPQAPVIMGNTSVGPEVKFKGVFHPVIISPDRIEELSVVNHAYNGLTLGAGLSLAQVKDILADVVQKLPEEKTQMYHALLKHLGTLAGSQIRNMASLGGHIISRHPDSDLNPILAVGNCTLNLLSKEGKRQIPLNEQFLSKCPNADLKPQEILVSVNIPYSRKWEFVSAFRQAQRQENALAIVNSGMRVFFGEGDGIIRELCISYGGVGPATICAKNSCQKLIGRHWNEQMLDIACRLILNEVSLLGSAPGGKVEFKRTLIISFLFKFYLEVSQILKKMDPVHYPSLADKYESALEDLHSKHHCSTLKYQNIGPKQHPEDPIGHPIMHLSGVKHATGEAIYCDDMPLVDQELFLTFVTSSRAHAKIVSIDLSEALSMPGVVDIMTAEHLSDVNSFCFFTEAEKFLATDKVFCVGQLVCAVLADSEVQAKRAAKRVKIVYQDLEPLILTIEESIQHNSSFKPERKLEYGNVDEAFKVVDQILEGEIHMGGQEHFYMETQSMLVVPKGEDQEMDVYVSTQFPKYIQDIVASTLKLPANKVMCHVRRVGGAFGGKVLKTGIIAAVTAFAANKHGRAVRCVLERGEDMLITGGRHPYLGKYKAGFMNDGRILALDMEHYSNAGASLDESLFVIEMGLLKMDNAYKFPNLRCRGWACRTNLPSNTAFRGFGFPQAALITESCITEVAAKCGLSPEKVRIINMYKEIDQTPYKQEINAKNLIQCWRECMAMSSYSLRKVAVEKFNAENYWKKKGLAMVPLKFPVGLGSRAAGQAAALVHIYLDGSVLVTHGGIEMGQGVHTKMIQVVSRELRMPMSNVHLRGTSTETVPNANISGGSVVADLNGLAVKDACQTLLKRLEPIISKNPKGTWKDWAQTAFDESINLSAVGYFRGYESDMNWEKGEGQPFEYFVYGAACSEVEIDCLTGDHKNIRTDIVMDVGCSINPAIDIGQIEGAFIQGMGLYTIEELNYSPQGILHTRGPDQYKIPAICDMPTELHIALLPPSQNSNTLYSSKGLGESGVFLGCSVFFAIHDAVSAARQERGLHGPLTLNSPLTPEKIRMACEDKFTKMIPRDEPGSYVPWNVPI
Method: Carbazeran 4-oxidation and O^6-benzylguanine 8-oxidation were deployed as AOX1-selective catalytic markers.[27] The assay conditions (amount of cytosolic protein, incubation time, and substrate concentration) for carbazeran 4-oxidation catalyzed by human recombinant AOX1 and human/rat/mouse liver cytosols were optimized previously.[7]^,[25]
Enzymatic reaction was initiated by adding human liver cytosol (100 μg). After the specified preincubation duration, an aliquot (10 μL) of the preincubation mixture was transferred to 190 μL of a prewarmed (for 3 minutes at 37 °C) secondary incubation mixture (total volume of 200 μL) containing potassium phosphate buffer and carbazeran (15 μM) or O^6-benzylguanine (150 μM), which yielded a 20-fold dilution of the primary incubation mixture. The secondary incubation mixture was incubated for 5 minutes at 37 °C before the enzymatic reaction was terminated with 200 μL of ice-cold acetonitrile containing carbazeran-d4 (2.5 nM final concentration; internal standard for 4-oxo-carbazeran) or tolbutamide (25 nM final concentration; internal standard for 8-oxo-O^6-benzylguanine). Each sample was immediately mixed by vortex, placed on ice, centrifuged at 16,000g for 15 minutes at 4 °C and stored at –30 °C until ultra-high performance liquid chromatography–tandem mass spectrometry (UPLC-MS/MS) analysis. For enzyme inactivation assays involving rat and mouse liver cytosol and recombinant AOX1 assays, the experimental conditions were similar to those of human liver cytosol, except that the amount of cytosolic protein was 200 μg (rat) and 150 μg (mouse), respectively, and the incubation time of the secondary incubation mixture was 60 minutes. For the recombinant AOX1 enzyme assay, the amount of enzyme was 100 μg, the incubation time of the secondary incubation mixture was 15 minutes, and the total volume of the primary and secondary incubation mixtures was reduced to 100 μL.
Preliminary experiments were performed to optimize the incubation time and concentration of an inactivator to ensure a log-linear decrease in enzyme activity over time and that the kobs versus inactivator concentration plot reaches a plateau for the determination of the kinact value. The observed first-order rate constant for inactivation (kobs), maximal inactivation rate constant (kinact), half-maximal inactivation concentration (KI), and the time required for half of the enzyme molecules to be inactivated (t1/2) were calculated as described in our previous publication.[28]

[3] = half-maximal inactivation concentration, human liver cytosol, carbazeran 4-oxidation
[4] = human liver cytosol, carbazeran 4-oxidation
[5] = read-out: KI,u, unbound, KI,u = fu × KI, fu at 10 μM in human liver cytosol
[6] = human liver cytosol, 10 μM (raloxifene 0.02 μM), 30-minute preincubation
[7] = 10 μM, human liver cytosol 100 μg protein, 4-hour dialysis
[8] = human liver cytosol, inactivator 1.5 μM alone, 6-minute preincubation

Row | Compound | Fraction Unbound (fu) ([1]; human, cytosol) | KI, decrease compared with erlotinib ([2]; Table 1 values) | kinact, decrease compared with erlotinib ([2]; Table 1 values) | kinact/KI ratio, decrease compared with erlotinib ([2]; Table 1 values) | t1/2, fold longer compared with erlotinib ([2]; Table 1 values) | Ki [2, 3] | kinact [2] | Inactivation t1/2 [2, 4] | kinact/KI [2, 4] | Ki [2, 5] | KI, fold higher compared with erlotinib ([2]; Table 1 values) | kinact, fold lower compared with erlotinib ([2]; Table 1 values) | kinact/KI ratio, fold lower compared with erlotinib ([2]; Table 1 values) | decrease in carbazeran 4-oxidation [2, 6] | decrease in carbazeran 4-oxidation ([2]; human liver cytosol, 6 minutes of preincubation (data not shown)) | Experimental Log KI ([2]; human liver cytosol) | Fraction Unbound (fu) [1, 7] | decrease in carbazeran 4-oxidation [2, 8] | KI (inactivation) ([2]; read-out: KI, half-maximal inactivation concentration, human liver cytosol, carbazeran 4-oxidation) | fraction unbound at 4 h, 10 μM ([1]; human, human liver cytosol)
1 | C#Cc1cc(Nc2ncnc3cc(OCCOC)c(OCCOC)cc23)ccc1C [4′-Methylerlotinib, 4′-methylerlotinib] | 0.73 ± 0.05 | 62% | 88% | 70% | 8.5 fold | 1.03 ± 0.27 µM | 0.14 ± 0.03∗∗∗ min^–1 | 5.29 ± 1.19∗∗∗ min | 0.13 ± 0.02∗∗∗ min^–1μM^–1 | 0.75 ± 0.2 µM |  |  |  |  |  |  |  |  |  | 
2 | C#Cc1cccc(Nc2nc(C)nc3cc(OCCOC)c(OCCOC)cc23)c1 [2-Methylerlotinib, 2-methylerlotinib] | 0.51 ± 0.07 |  | 26% | 51% | 1.3 fold | 4 ± 0.27 µM | 0.84 ± 0.10∗∗ min^–1 | 0.83 ± 0.11 min | 0.21 ± 0.01∗∗∗ min^–1μM^–1 | 2.04 ± 0.14 µM | 1.5 fold |  |  |  |  |  |  |  |  | 
3 | C=Cc1cccc(Nc2ncnc3cc(OCCOC)c(OCCOC)cc23)c1 [3-Vinylerlotinib, 3-vinylerlotinib] | 0.78 ± 0.04 |  |  |  | approximately 3.5 fold | 30.6 ± 9.6 µM | 0.33 ± 0.07∗∗∗ min^–1 | 2.14 ± 0.47∗ min |  | 23.9 ± 7.53 µM | ~11 fold | approximately 3.5 fold | ~43 fold | 84% | did not decrease | 1.5 ± 0.15∗∗∗ μM |  |  |  | 
4 | C#Cc1cccc(Nc2ncnc3cc(OCCOC)c(OCCO)cc23)c1 [O-Desmethylerlotinib, O-desmethylerlotinib] |  |  |  |  |  |  | 1.05 ± 0.06 min^–1 | 0.66 ± 0.04 min | 0.21 ± 0.04∗∗∗ min^–1μM^–1 | 4.41 ± 1.04 µM |  |  |  | 99% |  | 0.71 ± 0.11∗ μM | 0.84 | 69% and 79% and 80% | 5.23 ± 1.24 µM | 
5 | C#Cc1cccc(Nc2ncnc3cc(OCCOC)c(OCCOC)cc23)c1 [Erlotinib] |  |  |  |  |  |  |  | 0.62 ± 0.09 min |  |  |  |  |  |  |  |  |  |  |  | 0.56
6 | C#Cc1cccc(Nc2ncnc3cc(OCCO)c(OCCO)cc23)c1 [O-Didesmethylerlotinib, O-didesmethylerlotinib] |  |  |  |  |  | 1.98 ± 0.2 µM | 1.00 ± 0.04 min^–1 | 0.70 ± 0.03 min | 0.50 ± 0.03∗∗ min^–1μM^–1 | 1.67 ± 0.17 µM |  |  |  | 99% |  | 0.30 ± 0.04 μM | 0.84 | 90% and 89% and 92% |  | 
